According to PubChem BioAssay (NCI):
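All cell lines were grown in 96-well plates and treated with compound for 48 hours. The concentration for 50% growth inhibition is given as GI50. At the TGI there is no net growth.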

Assays:
Experiment in all cases: NCI-60 cell line screen, 48 h
[1] = tested on: SR leukemia
[2] = tested on: CCRF-CEM leukemia
[3] = tested on: PC-3 prostate
[4] = tested on: IGROV1 ovarian
[5] = tested on: RXF 393 renal
[6] = tested on: HCC-2998 colon
[7] = tested on: A549 NSCLC
[8] = tested on: NCI-H226 lung
[9] = tested on: UO-31 renal
[10] = tested on: MDA-MB-231 breast
[11] = tested on: T-47D breast
[12] = tested on: KM12 colon
[13] = tested on: MALME-3M melanoma
[14] = tested on: CAKI-1 renal
[15] = tested on: OVCAR-4 ovarian
[16] = tested on: UACC-62 melanoma
[17] = tested on: ACHN renal
[18] = tested on: HCT-116 colon
[19] = tested on: K-562 leukemia
[20] = tested on: SF-268 CNS
[21] = tested on: HL-60(TB) leukemia
[22] = tested on: NCI-H522 lung
[23] = tested on: HOP-92 NSCLC
[24] = tested on: U251 CNS
[25] = tested on: EKVX NSCLC
[26] = tested on: SF-295 CNS
[27] = tested on: HT29 colon
[28] = tested on: LOX IMVI melanoma
[29] = tested on: MCF7 breast
[30] = tested on: TK-10 renal
[31] = tested on: HS 578T breast
[32] = tested on: RPMI-8226 leukemia
[33] = tested on: SK-OV-3 ovarian
[34] = tested on: SK-MEL-28 melanoma
[35] = tested on: UACC-257 melanoma
[36] = tested on: SF-539 CNS
[37] = tested on: SNB-75 CNS
[38] = tested on: SW-620 colon
[39] = tested on: SK-MEL-5 melanoma
[40] = tested on: OVCAR-8 ovarian
[41] = tested on: OVCAR-5 ovarian
[42] = tested on: BT-549 breast
[43] = tested on: MOLT-4 leukemia
[44] = tested on: M14 melanoma
[45] = tested on: COLO 205 colon
[46] = tested on: NCI-H460 lung
[47] = tested on: MDA-MB-435
[48] = tested on: SK-MEL-2 melanoma
[49] = tested on: HCT-15 colon
[50] = tested on: HOP-62 NSCLC
[51] = tested on: SN12C renal
[52] = tested on: NCI/ADR-RES ovarian
[53] = tested on: 786-0 renal
[54] = tested on: SNB-19 CNS

COc1ccc(-c2cc(-c3cccc4ccccc34)n3c(n2)nc2ccccc23)cc1OC
GI50 [1]: 0.362 µM | TGI [1]: > 100 µM | GI50 [2]: 0.556 µM | TGI [2]: > 100 µM | GI50 [3]: 2.5 µM | TGI [3]: > 100 µM | GI50 [4]: 1.48 µM | TGI [4]: > 100 µM | GI50 [5]: 2.75 µM | TGI [5]: > 100 µM | GI50 [6]: 1.62 µM | TGI [6]: 4.72 µM | GI50 [7]: 0.58 µM | TGI [7]: 15.2 µM | GI50 [8]: 1.16 µM | TGI [8]: 6.7 µM | GI50 [9]: 0.675 µM | TGI [9]: > 100 µM | GI50 [10]: 1.52 µM | TGI [10]: > 100 µM | GI50 [11]: 1.73 µM | TGI [11]: 9.24 µM | GI50 [12]: 9.43 µM | TGI [12]: > 100 µM | GI50 [13]: 0.882 µM | TGI [13]: 16.7 µM | GI50 [14]: 0.559 µM | TGI [14]: > 100 µM | GI50 [15]: 4.77 µM | TGI [15]: > 100 µM | GI50 [16]: 1.03 µM | TGI [16]: 7.2 µM | GI50 [17]: 0.461 µM | TGI [17]: 3.35 µM | GI50 [18]: 1.66 µM | TGI [18]: 49 µM | GI50 [19]: 1.32 µM | TGI [19]: > 100 µM | GI50 [20]: 1.95 µM | TGI [20]: > 100 µM | GI50 [21]: 0.419 µM | TGI [21]: 3.29 µM | GI50 [22]: 2.75 µM | TGI [22]: > 100 µM | GI50 [23]: 1.65 µM | TGI [23]: 7.99 µM | GI50 [24]: 1.16 µM | TGI [24]: > 100 µM | GI50 [25]: 2.79 µM | TGI [25]: > 100 µM | GI50 [26]: 0.582 µM | TGI [26]: 5.33 µM | GI50 [27]: 1.91 µM | TGI [27]: 28.2 µM | GI50 [28]: 0.975 µM | TGI [28]: 6.65 µM | GI50 [29]: 0.509 µM | TGI [29]: > 100 µM | GI50 [30]: 2.47 µM | TGI [30]: > 100 µM | GI50 [31]: 1.42 µM | TGI [31]: > 100 µM | GI50 [32]: 1.34 µM | TGI [32]: 4.29 µM | GI50 [33]: 2.55 µM | TGI [33]: 44.9 µM | GI50 [34]: 2.88 µM | TGI [34]: > 100 µM | GI50 [35]: 2.14 µM | TGI [35]: 40.3 µM | GI50 [36]: 1.02 µM | TGI [36]: 7.67 µM | GI50 [37]: 0.867 µM | TGI [37]: 4.6 µM | GI50 [38]: 0.78 µM | TGI [38]: > 100 µM | GI50 [39]: 0.96 µM | TGI [39]: 2.84 µM | GI50 [40]: 1.06 µM | TGI [40]: > 100 µM | GI50 [41]: 3.03 µM | TGI [41]: > 100 µM | GI50 [42]: 2.27 µM | TGI [42]: 6.09 µM | GI50 [43]: 0.354 µM | TGI [43]: > 100 µM | GI50 [44]: 2.08 µM | TGI [44]: > 100 µM | GI50 [45]: 0.626 µM | TGI [45]: > 100 µM | GI50 [46]: 0.357 µM | TGI [46]: 1.75 µM | GI50 [47]: 2.72 µM | TGI [47]: > 100 µM | GI50 [48]: 2.57 µM | TGI [48]: 7.47 µM | GI50 [49]: 0.926 µM | TGI [49]: > 100 µM | GI50 [50]: 0.65 µM | TGI [50]: 4.51 µM | GI50 [51]: 1.33 µM | TGI [51]: > 100 µM | GI50 [52]: 2.07 µM | TGI [52]: > 100 µM | GI50 [53]: 1.57 µM | TGI [53]: > 100 µM | GI50 [54]: 2.59 µM | TGI [54]: > 100 µM
